# Experimental data taken from patent US6376518B1, “Acyl derivatives of 4-demethylpenclomedine, use thereof and preparation thereof” (Southern Research Institute, priority 1999, dated 2002).
# Like-named read-outs stand apart in the source and are kept apart here.
# Columns and labels:
# [1] = system: P388/0 leukemia; details: P388/0, Q1D × 1 (1); for MEDIAN DAY OF DEATH: dying mice only
# [2] = system: P388/BCNU leukemia; test: Antitumor activity against IP-implanted P388/BCNU leukemia in mice; details: P388/BCNU, Q1D × 1 (1); for MEDIAN DAY OF DEATH: dying mice only
# [3] = system: P388/CPA leukemia; test: Antitumor activity against IP-implanted P388/CPA leukemia in mice; type: in vivo, murine; details: P388/CPA, Q1D × 1 (1); for MEDIAN DAY OF DEATH: dying mice only
# [4] = system: human MX-1 mammary tumor; test: In vivo antitumor activity vs i.c.-implanted human MX-1 mammary tumor xenograft in athymic mice; details: ic MX-1; for Median % ILS (dying mice only) / Tumor-Free-Surv/Total: Days 1-5
# [5] = system: P388/L-PAM leukemia; details: P388/L-PAM, Q1D × 1 (1); for MEDIAN DAY OF DEATH: dying mice only
smiles,measurement,setting,value
"O=NN(CCCl)C(=O)NCCCl [BCNU (carmustine), carmustine]",50-DAY SURV/TOTAL,[1]; IP 20.0 mg/kg/dose,3/6
same,APPROX. NET LOG10 CHANGE IN TUMOR BURDEN AT END OF Rx,[1]; IP 20.0 mg/kg/dose,ca −8.8
same,MEDIAN DAY OF DEATH,[1]; IP 20.0 mg/kg/dose,27.0
same,50-DAY SURV/TOTAL,[1]; IP 30.0 mg/kg/dose,6/6
same,50-DAY SURV/TOTAL,[2]; IP 20.0 mg/kg/dose,0/6
same,% ILS,[2]; IP 20.0 mg/kg/dose,0%
same,APPROX. NET LOG10 CHANGE IN TUMOR BURDEN AT END OF Rx,[2]; IP 20.0 mg/kg/dose,0
same,MEDIAN DAY OF DEATH,[2]; IP 20.0 mg/kg/dose,9.0
same,50-DAY SURV/TOTAL,[2]; IP 30.0 mg/kg/dose,0/6
same,% ILS,[2]; IP 30.0 mg/kg/dose,−6%
same,APPROX. NET LOG10 CHANGE IN TUMOR BURDEN AT END OF Rx,[2]; IP 30.0 mg/kg/dose,+0.4
same,MEDIAN DAY OF DEATH,[2]; IP 30.0 mg/kg/dose,8.5
"O=P1(N(CCCl)CCCl)NCCCO1 (centres unmarked) [CPA (cyclophosphamide), cyclophosphamide]",50-DAY SURV/TOTAL,[3]; IP 175.0 mg/kg/dose,0/6
same,% ILS,[3]; IP 175.0 mg/kg/dose,+9%
same,APPROX. NET LOG10 CHANGE IN TUMOR BURDEN AT END OF Rx,[3]; IP 175.0 mg/kg/dose,−0.6
same,MEDIAN DAY OF DEATH,[3]; IP 175.0 mg/kg/dose,12.0
same,50-DAY SURV/TOTAL,[3]; IP 265.0 mg/kg/dose,0/6
same,% ILS,[3]; IP 265.0 mg/kg/dose,+27%
same,APPROX. NET LOG10 CHANGE IN TUMOR BURDEN AT END OF Rx,[3]; IP 265.0 mg/kg/dose,−1.7
same,MEDIAN DAY OF DEATH,[3]; IP 265.0 mg/kg/dose,14.0
same,50-DAY SURV/TOTAL,[1]; IP 175.0 mg/kg/dose,1/6
same,APPROX. NET LOG10 CHANGE IN TUMOR BURDEN AT END OF Rx,[1]; IP 175.0 mg/kg/dose,ca −8.8
same,MEDIAN DAY OF DEATH,[1]; IP 175.0 mg/kg/dose,30.0
same,50-DAY SURV/TOTAL,[1]; IP 265.0 mg/kg/dose,6/6
COc1nc(C(Cl)(Cl)Cl)c(Cl)c(OC(=O)COC(C)=O)c1Cl [DM-AA-PEN],Median % ILS (dying mice only),[4]; IP 135 mg/kg/dose,+67%
same,Tumor-Free-Surv/Total,[4]; IP 135 mg/kg/dose,0/5
same,Tumor-Free-Surv/Total,[4]; oral (gavage) 135 mg/kg/dose,2/5
COc1nc(C(Cl)(Cl)Cl)c(Cl)c(OC(=O)c2ccc(CCl)cc2)c1Cl [DM-CMB-PEN],Median % ILS (dying mice only),[4]; IP 90 mg/kg/dose,+73%
same,Tumor-Free-Surv/Total,[4]; IP 90 mg/kg/dose,0/5
CCCCCCCC(=O)Oc1c(Cl)c(OC)nc(C(Cl)(Cl)Cl)c1Cl [DM-O-PEN],activity against i.c.-implanted tumor in comparison to PEN and DM-PEN (in words),[4],significant activity
same,Tumor-Free-Surv/Total,[4]; IP 90 mg/kg/dose,0/5
same,Survivors,"[4]; optimal doses (LD10 or less), schedule QD1-5, administered LP.",0/5
COc1nc(C(Cl)(Cl)Cl)c(Cl)c(OC(=O)c2c(Cl)cc(Cl)cc2Cl)c1Cl [DM-TCB-PEN],Median % ILS (dying mice only),[4]; IP 135 mg/kg/dose,+92%
same,Tumor-Free-Surv/Total,[4]; IP 135 mg/kg/dose,1/5
"N[C@@H](Cc1ccc(N(CCCl)CCCl)cc1)C(=O)O [L-PAM (melphalan), melphalan]",50-DAY SURV/TOTAL,[1]; IP 15.0 mg/kg/dose,6/6
same,50-DAY SURV/TOTAL,[1]; IP 20.0 mg/kg/dose,6/6
same,% ILS,[1]; IP 20.0 mg/kg/dose,+209%
same,APPROX. NET LOG10 CHANGE IN TUMOR BURDEN AT END OF Rx,[1]; IP 20.0 mg/kg/dose,ca −8.8
same,MEDIAN DAY OF DEATH,[1]; IP 20.0 mg/kg/dose,34.0
same,50-DAY SURV/TOTAL,[5]; IP 15.0 mg/kg/dose,0/6
same,% ILS,[5]; IP 15.0 mg/kg/dose,+14%
same,APPROX. NET LOG10 CHANGE IN TUMOR BURDEN AT END OF Rx,[5]; IP 15.0 mg/kg/dose,−1.8
same,MEDIAN DAY OF DEATH,[5]; IP 15.0 mg/kg/dose,18.0
same,50-DAY SURV/TOTAL,[5]; IP 20.0 mg/kg/dose,0/6
same,% ILS,[5]; IP 20.0 mg/kg/dose,+14%
same,APPROX. NET LOG10 CHANGE IN TUMOR BURDEN AT END OF Rx,[5]; IP 20.0 mg/kg/dose,−1.8
same,MEDIAN DAY OF DEATH,[5]; IP 20.0 mg/kg/dose,18.0
